Experiments:
[1] = tested on: ABUTH (Velvetleaf); assay: Postemergence herbicidal evaluation; format: in vivo, Abutilon theophrasti; conditions: postemergence
How it was run: (§1)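 Visual 0-9 injury score (stand, vigor, malformation, size, chlorosis, appearance vs untreated) taken four to five weeks post-spray, averaged across repeat tests. Test plants about two weeks old; foliar spray of acetone/water (1:1) with 0.5% surfactant delivering ~0.0156-0.500 kg active/ha.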

[2] = tested on: ZEAMX (Corn, Field); assay: Postemergence herbicidal evaluation; format: in vivo, Zea mays; conditions: postemergence
How it was run: as §1

[3] = tested on: ZEAMX (Corn, Field); assay: Preemergence herbicidal evaluation; format: in vivo, Zea mays; conditions: rated 4-5 weeks after treatment
How it was run: (§2)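 Preemergence soil application of compound, sprayed in aqueous acetone at rates equivalent to about 0.0156 to 0.500 kg per hectare onto freshly sown cups. Plant response was judged by eye on a 0-9 scale four to five weeks later.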

[4] = tested on: CASOB (Sicklepod); assay: Preemergence herbicidal evaluation; format: in vivo, Cassia obtusifolia; conditions: rated 4-5 weeks after treatment
How it was run: as §2

[5] = tested on: TRZAWR (Wheat, Winter, cv Riband); assay: Preemergence herbicidal evaluation; format: in vivo, Triticum aestivum; conditions: rated 4-5 weeks after treatment
How it was run: as §2

[6] = tested on: ABUTH (Velvetleaf); assay: Preemergence herbicidal evaluation; format: in vivo, Abutilon theophrasti; conditions: rated 4-5 weeks after treatment
How it was run: as §2

[7] = tested on: CHEAL (Lambsquarters, Common); assay: Preemergence herbicidal evaluation; format: in vivo, Chenopodium album; conditions: rated 4-5 weeks after treatment
How it was run: as §2

[8] = tested on: ECHCG (Barnyardgrass); assay: Postemergence herbicidal evaluation; format: in vivo, Echinochloa crus-galli; conditions: postemergence
How it was run: as §1

[9] = tested on: IPOHE (Morningglory, Ivyleaf); assay: Preemergence herbicidal evaluation; format: in vivo, Ipomoea hederacea; conditions: rated 4-5 weeks after treatment
How it was run: as §2

[10] = tested on: ECHCG (Barnyardgrass); assay: Preemergence herbicidal evaluation; format: in vivo, Echinochloa crus-galli; conditions: rated 4-5 weeks after treatment
How it was run: as §2

[11] = tested on: CHEAL (Lambsquarters, Common); assay: Postemergence herbicidal evaluation; format: in vivo, Chenopodium album; conditions: postemergence
How it was run: as §1

[12] = tested on: SETVI (Foxtail, Green); assay: Postemergence herbicidal evaluation; format: in vivo, Setaria viridis; conditions: postemergence
How it was run: as §1

[13] = tested on: GLXMAW (Soybean, Williams); assay: Preemergence herbicidal evaluation; format: in vivo, Glycine max, (L.) Merr. cv Williams; conditions: rated 4-5 weeks after treatment
How it was run: as §2

[14] = tested on: IPOHE (Morningglory, Ivyleaf); assay: Postemergence herbicidal evaluation; format: in vivo, Ipomoea hederacea; conditions: postemergence
How it was run: as §1

[15] = tested on: ORYSAT (Rice, Tebonnet); assay: Postemergence herbicidal evaluation; format: in vivo, Oryza sativa, (L.) Tebonnet; conditions: postemergence
How it was run: as §1

Structure (SMILES): CCOC(=O)CN1C(=O)C(SC)SC1=Nc1cc(-n2c(=O)cc(C(F)(F)F)n(C)c2=O)c(F)cc1Cl (stereo not drawn) [Compound 125, Ethyl 2-{{2-chloro-5-[3,6-dihydro-3-methyl-2,6-dioxo-4-(trifluoromethyl)-1(2H)-pyrimidinyl]-4-fluorophenyl}imino}-5-(methylthio)-4-oxo-3-thiazolidineacetate]
- herbicidal rating ABUTH ([1]; rate 0.0156 kg/ha): 9.0
- herbicidal rating ABUTH ([1]; rate 0.0313 kg/ha): 9.0
- herbicidal rating ABUTH ([1]; rate 0.0625 kg/ha): 9.0
- herbicidal rating ZEAMX ([2]; rate 0.0156 kg/ha): 6.7
- herbicidal rating ZEAMX ([2]; rate 0.0313 kg/ha): 7.3
- herbicidal rating ZEAMX ([2]; rate 0.0625 kg/ha): 8.0
- Preemergence herbicidal rating ZEAMX ([3]; rate 0.0156 kg/ha): 0.0
- Preemergence herbicidal rating ZEAMX ([3]; rate 0.0313 kg/ha): 0.0
- Preemergence herbicidal rating ZEAMX ([3]; rate 0.0625 kg/ha): 3.0
- Preemergence herbicidal rating ZEAMX ([3]; rate 0.1250 kg/ha): 6.0
- Preemergence herbicidal rating ZEAMX ([3]; rate 0.2500 kg/ha): 7.0
- Preemergence herbicidal rating ZEAMX ([3]; rate 0.5000 kg/ha): 7.0
- Preemergence herbicidal rating CASOB ([4]; rate 0.0156 kg/ha): 0.0
- Preemergence herbicidal rating CASOB ([4]; rate 0.0313 kg/ha): 1.0
- Preemergence herbicidal rating CASOB ([4]; rate 0.0625 kg/ha): 3.0
- Preemergence herbicidal rating CASOB ([4]; rate 0.1250 kg/ha): 2.0
- Preemergence herbicidal rating CASOB ([4]; rate 0.2500 kg/ha): 9.0
- Preemergence herbicidal rating CASOB ([4]; rate 0.5000 kg/ha): 9.0
- Preemergence herbicidal rating TRZAWR ([5]; rate 0.0156 kg/ha): 0.0
- Preemergence herbicidal rating TRZAWR ([5]; rate 0.0313 kg/ha): 0.0
- Preemergence herbicidal rating TRZAWR ([5]; rate 0.0625 kg/ha): 1.0
- Preemergence herbicidal rating TRZAWR ([5]; rate 0.1250 kg/ha): 1.0
- Preemergence herbicidal rating TRZAWR ([5]; rate 0.2500 kg/ha): 4.0
- Preemergence herbicidal rating TRZAWR ([5]; rate 0.5000 kg/ha): 5.0
- Preemergence herbicidal rating ABUTH ([6]; rate 0.0156 kg/ha): 0.0
- Preemergence herbicidal rating ABUTH ([6]; rate 0.0313 kg/ha): 2.0
- Preemergence herbicidal rating ABUTH ([6]; rate 0.0625 kg/ha): 4.0
- Preemergence herbicidal rating ABUTH ([6]; rate 0.1250 kg/ha): 6.0
- Preemergence herbicidal rating ABUTH ([6]; rate 0.2500 kg/ha): 9.0
- Preemergence herbicidal rating ABUTH ([6]; rate 0.5000 kg/ha): 9.0
- Preemergence herbicidal rating CHEAL ([7]; rate 0.0156 kg/ha): 9.0
- Preemergence herbicidal rating CHEAL ([7]; rate 0.0313 kg/ha): 9.0
- Preemergence herbicidal rating CHEAL ([7]; rate 0.0625 kg/ha): 9.0
- Preemergence herbicidal rating CHEAL ([7]; rate 0.1250 kg/ha): 9.0
- Preemergence herbicidal rating CHEAL ([7]; rate 0.2500 kg/ha): 9.0
- Preemergence herbicidal rating CHEAL ([7]; rate 0.5000 kg/ha): 9.0
- herbicidal rating ECHCG ([8]; rate 0.0156 kg/ha): 1.0
- herbicidal rating ECHCG ([8]; rate 0.0313 kg/ha): 2.0
- herbicidal rating ECHCG ([8]; rate 0.0625 kg/ha): 3.0
- Preemergence herbicidal rating IPOHE ([9]; rate 0.0156 kg/ha): 0.0
- Preemergence herbicidal rating IPOHE ([9]; rate 0.0313 kg/ha): 0.0
- Preemergence herbicidal rating IPOHE ([9]; rate 0.0625 kg/ha): 4.0
- Preemergence herbicidal rating IPOHE ([9]; rate 0.1250 kg/ha): 4.0
- Preemergence herbicidal rating IPOHE ([9]; rate 0.2500 kg/ha): 9.0
- Preemergence herbicidal rating IPOHE ([9]; rate 0.5000 kg/ha): 9.0
- Preemergence herbicidal rating ECHCG ([10]; rate 0.0156 kg/ha): 0.0
- Preemergence herbicidal rating ECHCG ([10]; rate 0.0313 kg/ha): 0.0
- Preemergence herbicidal rating ECHCG ([10]; rate 0.0625 kg/ha): 0.0
- Preemergence herbicidal rating ECHCG ([10]; rate 0.1250 kg/ha): 3.0
- Preemergence herbicidal rating ECHCG ([10]; rate 0.2500 kg/ha): 7.0
- Preemergence herbicidal rating ECHCG ([10]; rate 0.5000 kg/ha): 9.0
- herbicidal rating CHEAL ([11]; rate 0.0156 kg/ha): 3.0
- herbicidal rating CHEAL ([11]; rate 0.0313 kg/ha): 9.0
- herbicidal rating CHEAL ([11]; rate 0.0625 kg/ha): 9.0
- herbicidal rating SETVI ([12]; rate 0.0156 kg/ha): 2.0
- herbicidal rating SETVI ([12]; rate 0.0313 kg/ha): 5.0
- herbicidal rating SETVI ([12]; rate 0.0625 kg/ha): 5.0
- Preemergence herbicidal rating GLXMAW ([13]; rate 0.0156 kg/ha): 0.0
- Preemergence herbicidal rating GLXMAW ([13]; rate 0.0313 kg/ha): 0.0
- Preemergence herbicidal rating GLXMAW ([13]; rate 0.0625 kg/ha): 0.0
- Preemergence herbicidal rating GLXMAW ([13]; rate 0.1250 kg/ha): 3.0
- Preemergence herbicidal rating GLXMAW ([13]; rate 0.2500 kg/ha): 4.0
- Preemergence herbicidal rating GLXMAW ([13]; rate 0.5000 kg/ha): 7.0
- herbicidal rating IPOHE ([14]; rate 0.0156 kg/ha): 9.0
- herbicidal rating IPOHE ([14]; rate 0.0313 kg/ha): 9.0
- herbicidal rating IPOHE ([14]; rate 0.0625 kg/ha): 9.0
- herbicidal rating ORYSAT ([15]; rate 0.0156 kg/ha): 3.3
- herbicidal rating ORYSAT ([15]; rate 0.0313 kg/ha): 4.0
- herbicidal rating ORYSAT ([15]; rate 0.0625 kg/ha): 3.7

From patent publication US20020137929A1, “1 - (3-heterocyclylphenyl) isothiourea, -isourea, -guanidine and -amidine herbicidal agents” (Intellectual Property Department, BASF Aktiengesellschaft, priority 1998, published 2002)
